PubChem BioAssay AID2060341 (Molecular Pharmacology Branch, DTP, NCI, 2025)
pIC50: −log10 of the molar value.

System: 327498-153-R-J2-PDC multicell spheroid viability
Experiment: Anticancer human tumor 327498-153-R-J2-PDC patient-derived uterine carcinosarcoma cell line growth inhibition [IpAb]
Conditions: for pIC50: curve of first compound; for viability, T/C: stronger effect = lower value
From the text: Combinatorial screen of targeted agents with ipatasertib and abemaciclib in multi-cell type tumor spheroids
A high-throughput screen of multi-cell type tumor spheroids was designed to identify active combinations of targeted small molecules and ipatasertib or abemaciclib. Complex spheroids include a stromal component modeled by human endothelial cells (HUVEC) and fibroblasts modeled by human mesenchymal stem cells (MSCs). The concentration ranges selected for each drug and investigational agent were based upon clinically achievable concentrations if the clinical Cmax of the agent was known.
Compounds. The drugs and investigational agents: ipatasertib (NSC767898), abemaciclib(NSC768073), selumetinib (NSC741078), trametinib (758246), adavosertib (NSC754352), everolimus (NSC733504), sapanisertib (NSC764658), vemurafenib (NSC761431), venetoclax (NSC766270), copanlisib (NSC809693), apelisib (NSC765974), palbociblib (NSC758247), vemurafenib (NSC761431), dabrafenib (NSC764134), ravoxertinib (NSC781343), BMS-387032 (NSC767048), sotorasib (NSC818433), talazoparib (NSC767125) and afursertib (NSC778305), were obtained from the National Cancer Institute (NCI) Developmental Therapeutics Program Chemical Repository. The FDA-approved anticancer drug set is available from the NCI Developmental Therapeutics Program. […] The stock solutions were prepared in dimethyl sulfoxide (DMSO, Sigma-Aldrich, St. Louis, MO, cat. D2650) at 800-fold the tested concentration and stored at -70 degrees C prior to their use. All drugs and investigational agents were tested over a range starting from a high concentration at or near the clinical Cmax and decreasing in half-log increments. If the clinical Cmax for an agent had not been determined, the highest concentration tested was 10 microM.
NCI60 Cell Culture. NCI60 cell lines were obtained from the NCI Developmental Therapeutics Program Tumor Repository. For each lot of cells, the Repository performed Applied Biosystems AmpFLSTR Identifiler testing with PCR amplification to confirm consistency with the published Identifier STR profile for each cell line. Cells were kept in continuous culture for no more than 20 passages. The optimal seeding densities for each of the cell lines at each time point assessed were determined prior to performing the concentration response studies. Briefly, the NCI60 human tumor lines were grown as monolayers in RPMI 1640 medium supplemented with 10% FBS and 2 mmol/L L-glutamine.
An additional 9 lines were from the NCI60 cell line panel including MDA-MB-231 breast carcinoma, MDA-MB-468 breast carcinoma, MCF7 breast carcinoma, Hs578T breast carcinoma, MALME-3M melanoma, SK-MEL-2 melanoma, SK-OV-3 ovarian carcinoma, DU-145 prostate carcinoma, PC-3 prostate carcinoma, all cell lines along with major genetic alterations are listed on Table 2. Pooled donor human umbilical vein endothelial cells (HUVEC, Lonza, cat. CC-2519) and human mesenchymal stem cells (hMSC, Lonza, cat. PT-2501) were purchased from Lonza (Walkersville, MD).
PDMR cell lines were grown in complete medium (DC medium): Dulbecco's modified Eagle's medium (DMEM)/F12 supplemented with 5% fetal bovine serum (FBS), 2 mM L-glutamine, 100 U/mL penicillin and 100 µg/ml streptomycin, 0.4 µg/ml hydrocortisone, 10 ng/ml epidermal growth factor (EGF) recombinant human protein, 24 µg/mL adenine, and 0.1 mg/mL primocin. During culture from frozen stock vials, PDMR cells were cultured in the same medium containing 10 µM Y-27632 (see Table 3). The PDCs were cultured in complete DMEM/F12 media without 10 microM Y-27632 dihydrochloride for at least two passages prior to the screen. The pooled donor HUVEC and hMSC were cultured in endothelial cell growth medium 2 (PromoCell, Heidelberg, Germany, cat. C-22011) and mesenchymal stem cell growth medium 2 (PromoCell, cat. C-28009), respectively. For all experiments, HUVEC and hMSC were used at passages </=5.
[…]

[1] = second compound 0.1 µM, first compound 0.0316 µM
[2] = second compound 0.1 µM, first compound 0.1 µM
[3] = second compound 0.1 µM, first compound 0.316 µM
[4] = second compound 0.1 µM, first compound 1 µM
[5] = second compound 0.1 µM, first compound 3.16 µM
[6] = second compound 0.1 µM, first compound 10 µM
[7] = second compound 0.316 µM, first compound 0.0316 µM
[8] = second compound 0.316 µM, first compound 0.1 µM
[9] = second compound 0.316 µM, first compound 0.316 µM
[10] = second compound 0.316 µM, first compound 1 µM
[11] = second compound 0.316 µM, first compound 3.16 µM
[12] = second compound 0.316 µM, first compound 10 µM
[13] = second compound 1 µM, first compound 0.0316 µM
[14] = second compound 1 µM, first compound 0.1 µM
[15] = second compound 1 µM, first compound 0.316 µM
[16] = second compound 1 µM, first compound 1 µM
[17] = second compound 1 µM, first compound 3.16 µM
[18] = second compound 1 µM, first compound 10 µM
[19] = second compound 3.16 µM, first compound 0.0316 µM
[20] = second compound 3.16 µM, first compound 0.1 µM
[21] = second compound 3.16 µM, first compound 0.316 µM
[22] = second compound 3.16 µM, first compound 1 µM
[23] = second compound 3.16 µM, first compound 3.16 µM
[24] = second compound 3.16 µM, first compound 10 µM
[25] = second compound 10 µM, first compound 0.0316 µM
[26] = second compound 10 µM, first compound 0.1 µM
[27] = second compound 10 µM, first compound 0.316 µM
[28] = second compound 10 µM, first compound 1 µM
[29] = second compound 10 µM, first compound 3.16 µM
[30] = second compound 10 µM, first compound 10 µM
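Note: spheroids exposed to agents for 7 days.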
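Throughout, for viability, T/C: 100% = DMSO vehicle control viability.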

Row | SMILES | pIC50 (second compound 0.1 µM) | pIC50 (second compound 0.316 µM) | pIC50 (second compound 1 µM) | pIC50 (second compound 3.16 µM) | pIC50 (second compound 10 µM) | viability, T/C [1] [%] | viability, T/C [2] [%] | viability, T/C [3] [%] | viability, T/C [4] [%] | viability, T/C [5] [%] | viability, T/C [6] [%] | viability, T/C [7] [%] | viability, T/C [8] [%] | viability, T/C [9] [%] | viability, T/C [10] [%] | viability, T/C [11] [%] | viability, T/C [12] [%] | viability, T/C [13] [%] | viability, T/C [14] [%] | viability, T/C [15] [%] | also measured
1 | CC1(C)CCC(CN2CCN(c3ccc(C(=O)NS(=O)(=O)c4ccc(NCC5CCOCC5)c([N+](=O)[O-])c4)c(Oc4cnc5[nH]ccc5c4)c3)CC2)=C(c2ccc(Cl)cc2)C1 + CC(C)NCC(C(=O)N1CCN(c2ncnc3c2C(C)CC3O)CC1)c1ccc(Cl)cc1 | 5.27 | 5.40 | 5.46 | > 7.50 | > 7.50 | 92.4 | 96.7 | 88.8 | 91.6 | 84.7 | 9.23 | 84.1 | 76.2 | 73 | 71.5 | 62.9 | 5.02 | 61.5 | 57.1 | 56 | viability, T/C [16]: 51.7%; viability, T/C [17]: 54.8%; viability, T/C [18]: 2.82%; viability, T/C [19]: 43.8%; viability, T/C [20]: 43.9%; viability, T/C [21]: 43.5%; viability, T/C [22]: 42.7%; viability, T/C [23]: 42.9%; viability, T/C [24]: 1.99%; viability, T/C [25]: 34.7%; viability, T/C [26]: 30.8%; viability, T/C [27]: 31.3%; viability, T/C [28]: 31.1%; viability, T/C [29]: 26.6%; viability, T/C [30]: 0.91%
2 | Cn1nccc1Nc1nccc(-c2ccn(C(CO)c3ccc(Cl)c(F)c3)c(=O)c2)n1 (stereo not given) + CC(C)NCC(C(=O)N1CCN(c2ncnc3c2C(C)CC3O)CC1)c1ccc(Cl)cc1 | 5.49 | 6.16 | > 7.50 | > 7.50 | > 7.50 | 87.2 | 77.7 | 71.4 | 71.7 | 47.9 | 28.4 | 68.3 | 59.6 | 49.1 | 51.7 | 40.9 | 22.5 | 49.2 | 42.4 | 33.8 | viability, T/C [16]: 38.2%; viability, T/C [17]: 30.5%; viability, T/C [18]: 11.9%; viability, T/C [19]: 33.9%; viability, T/C [20]: 30.4%; viability, T/C [21]: 28.1%; viability, T/C [22]: 27.7%; viability, T/C [23]: 20%; viability, T/C [24]: 9.15%; viability, T/C [25]: 28.5%; viability, T/C [26]: 21.5%; viability, T/C [27]: 18%; viability, T/C [28]: 17.3%; viability, T/C [29]: 15.8%; viability, T/C [30]: 4.13%
